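Where inhibition never reached the appropriate level, the endpoint shown equals the highest concentration tested. Otherwise, values were interpolated linearly from a five-concentration, 48-hour dose response in 96-well plates. GI50: concentration for 50% inhibition of growth. TGI is the concentration that stops growth completely.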
Key:
Experiment in all cases: NCI-60 cell line screen, 48 h
[1] = tested on: 786-0 renal
[2] = tested on: A498 renal
[3] = tested on: A549 NSCLC
[4] = tested on: ACHN renal
[5] = tested on: BT-549 breast
[6] = tested on: CAKI-1 renal
[7] = tested on: CCRF-CEM leukemia
[8] = tested on: COLO 205 colon
[9] = tested on: DU-145 prostate
[10] = tested on: HCC-2998 colon
[11] = tested on: HCT-116 colon
[12] = tested on: HCT-15 colon
[13] = tested on: HL-60(TB) leukemia
[14] = tested on: HOP-62 NSCLC
[15] = tested on: HOP-92 NSCLC
[16] = tested on: HS 578T breast
[17] = tested on: HT29 colon
[18] = tested on: IGROV1 ovarian
[19] = tested on: K-562 leukemia
[20] = tested on: KM12 colon
[21] = tested on: LOX IMVI melanoma
[22] = tested on: M14 melanoma
[23] = tested on: MALME-3M melanoma
[24] = tested on: MCF7 breast
[25] = tested on: MDA-MB-231 breast
[26] = tested on: MDA-MB-435
[27] = tested on: MOLT-4 leukemia
[28] = tested on: NCI-H226 lung
[29] = tested on: NCI-H23 lung
[30] = tested on: NCI-H460 lung
[31] = tested on: NCI-H522 lung
[32] = tested on: NCI/ADR-RES ovarian
[33] = tested on: OVCAR-3 ovarian
[34] = tested on: OVCAR-4 ovarian
[35] = tested on: OVCAR-5 ovarian
[36] = tested on: OVCAR-8 ovarian
[37] = tested on: PC-3 prostate
[38] = tested on: RPMI-8226 leukemia
[39] = tested on: SF-268 CNS
[40] = tested on: SF-295 CNS
[41] = tested on: SF-539 CNS
[42] = tested on: SK-MEL-2 melanoma
[43] = tested on: SK-MEL-28 melanoma
[44] = tested on: SK-MEL-5 melanoma
[45] = tested on: SK-OV-3 ovarian
[46] = tested on: SN12C renal
[47] = tested on: SNB-19 CNS
[48] = tested on: SNB-75 CNS
[49] = tested on: SR leukemia
[50] = tested on: SW-620 colon
[51] = tested on: T-47D breast
[52] = tested on: TK-10 renal
[53] = tested on: U251 CNS
[54] = tested on: UACC-257 melanoma
[55] = tested on: UACC-62 melanoma
[56] = tested on: UO-31 renal

O=C(Nc1ccc(CN2CCOCC2)cc1)c1ccc(-c2cc(Cl)ccc2Cl)o1
GI50 [1]: 11.8 µM | TGI [1]: 26.1 µM | GI50 [2]: 10 µM | TGI [2]: 22.1 µM | GI50 [3]: 7.48 µM | TGI [3]: 32.4 µM | GI50 [4]: 18.4 µM | TGI [4]: 97.9 µM | GI50 [5]: 7.79 µM | TGI [5]: 43.1 µM | GI50 [6]: 13 µM | TGI [6]: 56.4 µM | GI50 [7]: 6.02 µM | TGI [7]: 49.1 µM | GI50 [8]: 2240 nM | TGI [8]: 4.19 µM | GI50 [9]: 18 µM | TGI [9]: 63.3 µM | GI50 [10]: 9.29 µM | TGI [10]: 23 µM | GI50 [11]: 5.92 µM | TGI [11]: 21.4 µM | GI50 [12]: 3.29 µM | TGI [12]: 34.4 µM | GI50 [13]: 4.45 µM | TGI [13]: 20.9 µM | GI50 [14]: 15.5 µM | TGI [14]: 38.5 µM | GI50 [15]: 10.2 µM | TGI [15]: 33.7 µM | GI50 [16]: 12.5 µM | TGI [16]: 34.4 µM | GI50 [17]: 2960 nM | TGI [17]: 12 µM | GI50 [18]: 23.5 µM | TGI [18]: 61.6 µM | GI50 [19]: 2000 nM | TGI [19]: 6.09 µM | GI50 [20]: 4.41 µM | TGI [20]: 16.3 µM | GI50 [21]: 2650 nM | TGI [21]: 13 µM | GI50 [22]: 11.1 µM | TGI [22]: 32.4 µM | GI50 [23]: 8.74 µM | TGI [23]: 29.2 µM | GI50 [24]: 9.98 µM | TGI [24]: 26.3 µM | GI50 [25]: 10.7 µM | TGI [25]: 29.5 µM | GI50 [26]: 11.6 µM | TGI [26]: 29.2 µM | GI50 [27]: 4.34 µM | TGI [27]: 20.5 µM | GI50 [28]: 12.2 µM | TGI [28]: 33.6 µM | GI50 [29]: 12.8 µM | TGI [29]: 31.8 µM | GI50 [30]: 3.54 µM | TGI [30]: 12.4 µM | GI50 [31]: 10.2 µM | TGI [31]: 26.6 µM | GI50 [32]: 17.4 µM | TGI [32]: > 100 µM | GI50 [33]: 15.3 µM | TGI [33]: 39.2 µM | GI50 [34]: 17.6 µM | TGI [34]: 67.1 µM | GI50 [35]: 15.7 µM | TGI [35]: 61.1 µM | GI50 [36]: 11.4 µM | TGI [36]: 51.3 µM | GI50 [37]: 8.63 µM | TGI [37]: 36.4 µM | GI50 [38]: 3.49 µM | TGI [38]: 17.7 µM | GI50 [39]: 16.5 µM | TGI [39]: 49.1 µM | GI50 [40]: 5.38 µM | TGI [40]: 28.5 µM | GI50 [41]: 8.69 µM | TGI [41]: 24.9 µM | GI50 [42]: 14.7 µM | TGI [42]: 30.5 µM | GI50 [43]: 11.9 µM | TGI [43]: 26.6 µM | GI50 [44]: 4.45 µM | TGI [44]: 16.7 µM | GI50 [45]: 15.1 µM | TGI [45]: 30.6 µM | GI50 [46]: 16.4 µM | TGI [46]: 52.6 µM | GI50 [47]: 16.2 µM | TGI [47]: 35.6 µM | GI50 [48]: 16 µM | TGI [48]: 36 µM | GI50 [49]: 2350 nM | TGI [49]: 8.99 µM | GI50 [50]: 3.33 µM | TGI [50]: 11.5 µM | GI50 [51]: 5.34 µM | TGI [51]: 22.4 µM | GI50 [52]: 13.1 µM | TGI [52]: 29.1 µM | GI50 [53]: 4.62 µM | TGI [53]: 19.6 µM | GI50 [54]: 11.2 µM | TGI [54]: 24.4 µM | GI50 [55]: 2390 nM | TGI [55]: 6.88 µM | GI50 [56]: 18.3 µM | TGI [56]: 78.1 µM
